From US4136186A, “Thieno[3,2-c]pyridine derivatives” (Parcor, priority 1976, dated 1979)
Like-named read-outs stand apart in the source and are kept apart here.

Legend:
[1] = tested on: ovalbumin-induced systemic edema; experiment: Ovalbumin-induced systemic edema method; format: in vivo; conditions: Rattus norvegicus, rats, oral 100 mg/kg one hour prior to and simultaneously with ovalbumin
Protocol: (b) Ovalbumin-induced systemic edema method Rats are administered a simultaneous intraperitoneal injection of 1 ml ovalbumin and 0.5 ml of a 1% aqueous Evans Blue solution. The animals of the treated group are additionally administered orally 100 mg/kg of the test derivative, one hour prior to and simultaneously with said ovalbumin administration. The intensity of the phenomenon thus induced is scored according to a scale from 1 to 5, according to the progress of the inflammatory syndrome. Thus are determined with respect to the control group the mean intensity and the percent decrease of the edema reaction, as a function of time. The percent anti-inflammatory activity obtained 2 hours and 3 hours, respectively, after ovalbumin injection, is tabulated in following Table III: […]

[2] = tested on: A.D.P.-induced blood-platelet aggregation; experiment: A.D.P.-induced blood-platelet aggregation (plasma of orally treated rats); format: in vivo, rats of Wistar strain; conditions: Rattus norvegicus, oral 100 mg/kg, 3 hours after treatment, 10 μM A.D.P., read-out: Percent inhibition of blood-platelet aggregation, A.D.P.
Protocol: (§1) A blood sample is taken from the jugular vein of rats of Wistar strain. From this citrated blood, and after centrifugation, is reconstituted a plasma containing 600,000 ± 20,000 platelets per mm^3 which will be used in all aggregation determinations. (a) Determination of A.D.P.-induced blood-platelet aggregation 0.4 ml plasma is placed in a siliconized tube provided with a magnetic bar, which is also siliconized. The tube is introduced into an aggregometer connected with an optical density variation recorder. When light transmission has reached a stable value, 0.5 ml of a solution containing 10 μM A.D.P. (adenosine-diphosphate) are introduced in the tube. Blood-platelet aggregation then induces an increase of light transmission followed by a decrease subsequent to the deaggregation phase. The thus determined maximum variation of optical density characterizes the intensity of the aggregation. Different groups of 20 rats are used, each group being administered orally a test derivative, at a dosage of 100 mg/kg. The results obtained in the course of tests a) and b) are tabulated in following Table I which indicates the percent inhibition of blood-plateletaggregation obtained, with respect to the control, 3 hours after treatment.

[3] = tested on: collagen-induced blood-platelet aggregation; experiment: Collagen-induced blood-platelet aggregation (plasma of orally treated rats); format: in vivo, rats of Wistar strain; conditions: Rattus norvegicus, oral 100 mg/kg, 3 hours after treatment, collagen (bovine tendon extract), read-out: Percent inhibition of blood-platelet aggregation, Collagen
Protocol: as §1, with “determinations.” for “determinations. (a) Determination of A.D.P.-induced blood-platelet aggregation”, “aggregation. (b) Determination of collagen-induced blood-platelet aggregation The A.D.P. solution is substituted with a collagen solution (bovine tendon extract).” for “aggregation.”

[4] = Potentiation of hypnotics (infrahypnotic sodium pentobarbital); format: in vivo; conditions: mice, oral 50 mg/kg, thirty minutes prior to i.p. infrahypnotic sodium pentobarbital
Protocol: In addition, the compounds of the formula (I) potentiate very markedly the effect of hypnotics. Indeed, on oral administration to different groups of mice, at a dosage of 50 mg/kg, thirty minutes prior to intraperitoneal injection of an infrahypnotic dosage of sodium pentobarbital, they produce, with respect to the untreated reference animals, a marked potentiation of the barbiturate.

[5] = tested on: carrageenin-induced edema; experiment: Localised carrageenin-induced edema method; format: in vivo; conditions: Rattus norvegicus, rats, oral 100 mg/kg at -1, 0, 1 and 2.5 hours
Protocol: (a) Localised carrageenin-induced edema method: A 1% carrageenin solution (0.1 ml) is injected in the metatarsal flexor muscles of the right hind limb of rats at time 0. The animals of the treated group are additionally administered orally 100 mg/kg of the test derivative, respectively one hour prior to and then simultaneously with the phlogogenic agent, and then one hour and 2.5 hours thereafter. The percent antiinflammatory activity, as a function of time, is determined with respect to the control group by measurements effected with a ROCH micrometer at times 0, one hour, two hours, three hours and five hours after carrageenin administration.

[6] = 2 hours after ovalbumin injection, read-out: Percent anti-inflammatory activity after 2 hours
[7] = 3 hours after ovalbumin injection, read-out: Percent anti-inflammatory activity after 3 hours
[8] = 1 hour after carrageenin, read-out: Percent anti-inflammatory activity after 1 hour
[9] = 2 hours after carrageenin, read-out: Percent anti-inflammatory activity after 2 hours
[10] = 3 hours after carrageenin, read-out: Percent anti-inflammatory activity after 3 hours
[11] = 5 hours after carrageenin, read-out: Percent anti-inflammatory activity after 5 hours

COC(=O)c1sc2c(c1O)CN(Cc1ccccc1Cl)CC2 [Derivative n°5, 5-o-Chlorobenzyl-3-hydroxy-2-methoxycarbonyl-4,5,6,7-tetrahydro-thieno[3,2-c]pyridine]
inhibition in vivo at 100 mg/kg [1, 6]: 47% | inhibition in vivo at 100 mg/kg [1, 7]: 55% | inhibition in vivo at 100 mg/kg [2]: 64.4% | inhibition in vivo at 100 mg/kg [3]: 96.7% | percent animals put to sleep [4]: 70% | inhibition in vivo at 100 mg/kg [5, 8]: 41% | inhibition in vivo at 100 mg/kg [5, 9]: 47% | inhibition in vivo at 100 mg/kg [5, 10]: 51% | inhibition in vivo at 100 mg/kg [5, 11]: 55%

CCOC(=O)c1sc2c(c1O)CN(C)CC2 [Derivative n°6, 2-Ethoxycarbonyl-3-hydroxy-5-methyl-4,5,6,7-tetrahydro-thieno[3,2-c]pyridine]
inhibition in vivo at 100 mg/kg [1, 6]: 52% | inhibition in vivo at 100 mg/kg [1, 7]: 59% | inhibition in vivo at 100 mg/kg [2]: 63.8% | inhibition in vivo at 100 mg/kg [3]: 93.2% | percent animals put to sleep [4]: 90% | inhibition in vivo at 100 mg/kg [5, 8]: 34% | inhibition in vivo at 100 mg/kg [5, 9]: 40% | inhibition in vivo at 100 mg/kg [5, 10]: 43% | inhibition in vivo at 100 mg/kg [5, 11]: 48%

CCCCOC(=O)c1sc2c(c1O)CN(Cc1ccccc1Cl)CC2 [Derivative n°10, 2-Butoxycarbonyl-5-o-chlorobenzyl-3-hydroxy-4,5,6,7-tetrahydro-thieno[3,2-c]pyridine]
inhibition in vivo at 100 mg/kg [1, 6]: 50% | inhibition in vivo at 100 mg/kg [1, 7]: 59% | inhibition in vivo at 100 mg/kg [2]: 63.6% | inhibition in vivo at 100 mg/kg [3]: 90.2% | percent animals put to sleep [4]: 90% | inhibition in vivo at 100 mg/kg [5, 8]: 37% | inhibition in vivo at 100 mg/kg [5, 9]: 42% | inhibition in vivo at 100 mg/kg [5, 10]: 48% | inhibition in vivo at 100 mg/kg [5, 11]: 51%

COC(=O)c1sc2c(c1O)CNCC2 [Derivative n°8, 3-Hydroxy-2-methoxycarbonyl-4,5,6,7-tetrahydro-thieno[3,2-c]pyridine]
inhibition in vivo at 100 mg/kg [1, 6]: 48% | inhibition in vivo at 100 mg/kg [1, 7]: 57% | inhibition in vivo at 100 mg/kg [2]: 62.1% | inhibition in vivo at 100 mg/kg [3]: 94.3% | percent animals put to sleep [4]: 80% | inhibition in vivo at 100 mg/kg [5, 8]: 43% | inhibition in vivo at 100 mg/kg [5, 9]: 49% | inhibition in vivo at 100 mg/kg [5, 10]: 53% | inhibition in vivo at 100 mg/kg [5, 11]: 55%

CCOC(=O)c1sc2c(c1O)CN(C(=O)c1ccccc1)CC2 [Derivative n°2, 5-benzoyl-2-ethoxycarbonyl-3-hydroxy-4,5,6,7-tetrahydro-thieno[3,2-c]pyridine]
inhibition in vivo at 100 mg/kg [1, 6]: 49% | inhibition in vivo at 100 mg/kg [1, 7]: 58% | inhibition in vivo at 100 mg/kg [2]: 62.8% | inhibition in vivo at 100 mg/kg [3]: 94.6% | percent animals put to sleep [4]: 60% | inhibition in vivo at 100 mg/kg [5, 8]: 42% | inhibition in vivo at 100 mg/kg [5, 9]: 48% | inhibition in vivo at 100 mg/kg [5, 10]: 50% | inhibition in vivo at 100 mg/kg [5, 11]: 53%

CCOC(=O)c1sc2c(c1O)CN(Cc1ccccc1)CC2.Cl [Derivative n°4, 5-Benzyl-2-ethoxycarbonyl-3-hydroxy-4,5,6,7-tetrahydro-thieno[3,2-c]pyridine hydrochloride]
inhibition in vivo at 100 mg/kg [1, 6]: 48% | inhibition in vivo at 100 mg/kg [1, 7]: 56% | inhibition in vivo at 100 mg/kg [2]: 64.8% | inhibition in vivo at 100 mg/kg [3]: 95.2% | percent animals put to sleep [4]: 70% | inhibition in vivo at 100 mg/kg [5, 8]: 39% | inhibition in vivo at 100 mg/kg [5, 9]: 45% | inhibition in vivo at 100 mg/kg [5, 10]: 50% | inhibition in vivo at 100 mg/kg [5, 11]: 53%

CCOC(=O)c1sc2c(c1O)CNCC2 [Derivative n°7, 2-Ethoxycarbonyl-3-hydroxy-4,5,6,7-tetrahydro-thieno[3,2-c]pyridine]
inhibition in vivo at 100 mg/kg [1, 6]: 50% | inhibition in vivo at 100 mg/kg [1, 7]: 60% | inhibition in vivo at 100 mg/kg [2]: 62.5% | inhibition in vivo at 100 mg/kg [3]: 95.6% | percent animals put to sleep [4]: 90% | inhibition in vivo at 100 mg/kg [5, 8]: 36% | inhibition in vivo at 100 mg/kg [5, 9]: 41% | inhibition in vivo at 100 mg/kg [5, 10]: 45% | inhibition in vivo at 100 mg/kg [5, 11]: 52%

CCOC(=O)c1sc2c(c1OC(C)=O)CN(Cc1ccccc1Cl)CC2 [Derivative n°3, 3-acetoxy-5-o-chlorobenzyl-2-ethoxycarbonyl-4,5,6,7-tetrahydro-thieno[3,2-c]pyridine]
inhibition in vivo at 100 mg/kg [1, 6]: 51% | inhibition in vivo at 100 mg/kg [1, 7]: 59% | inhibition in vivo at 100 mg/kg [2]: 62.4% | inhibition in vivo at 100 mg/kg [3]: 92.9% | percent animals put to sleep [4]: 80% | inhibition in vivo at 100 mg/kg [5, 8]: 38% | inhibition in vivo at 100 mg/kg [5, 9]: 45% | inhibition in vivo at 100 mg/kg [5, 10]: 49% | inhibition in vivo at 100 mg/kg [5, 11]: 51%

CCOC(=O)c1sc2c(c1O)CN(Cc1ccccc1Cl)CC2 [Derivative n°1, 5-o-Chlorobenzyl-2-ethoxycarbonyl-3-hydroxy-4,5,6,7-tetrahydro-thieno[3,2-c]pyridine]
inhibition in vivo at 100 mg/kg [1, 6]: 54% | inhibition in vivo at 100 mg/kg [1, 7]: 63% | inhibition in vivo at 100 mg/kg [2]: 61.2% | inhibition in vivo at 100 mg/kg [3]: 90.2% | percent animals put to sleep [4]: 60% | inhibition in vivo at 100 mg/kg [5, 8]: 46% | inhibition in vivo at 100 mg/kg [5, 9]: 53% | inhibition in vivo at 100 mg/kg [5, 10]: 56% | inhibition in vivo at 100 mg/kg [5, 11]: 60%

CCOC(=O)c1sc2c(c1O)CN(C(=O)OCC)CC2 [Derivative n°11, 2,5-Diethoxycarbonyl-3-hydroxy-4,5,6,7-tetrahydro-thieno[3,2-c]pyridine]
inhibition in vivo at 100 mg/kg [1, 6]: 51% | inhibition in vivo at 100 mg/kg [1, 7]: 61% | inhibition in vivo at 100 mg/kg [2]: 62.1% | inhibition in vivo at 100 mg/kg [3]: 91% | percent animals put to sleep [4]: 60% | inhibition in vivo at 100 mg/kg [5, 8]: 40% | inhibition in vivo at 100 mg/kg [5, 9]: 46% | inhibition in vivo at 100 mg/kg [5, 10]: 49% | inhibition in vivo at 100 mg/kg [5, 11]: 53%

CCOC(=O)c1sc2c(c1O)CN(CCc1ccccc1)CC2 [Derivative n°9, 2-Ethoxycarbonyl-3-hydroxy-5-phenethyl-4,5,6,7-tetrahydro-thieno[3,2-c]pyridine]
inhibition in vivo at 100 mg/kg [1, 6]: 53% | inhibition in vivo at 100 mg/kg [1, 7]: 62% | inhibition in vivo at 100 mg/kg [2]: 64.5% | inhibition in vivo at 100 mg/kg [3]: 93.8% | percent animals put to sleep [4]: 100% | inhibition in vivo at 100 mg/kg [5, 8]: 42% | inhibition in vivo at 100 mg/kg [5, 9]: 46% | inhibition in vivo at 100 mg/kg [5, 10]: 50% | inhibition in vivo at 100 mg/kg [5, 11]: 54%
